Key:
Experiment in all cases: Test Example-1: herbicidal effect by a treatment before weeds are generated under submerged conditions
Assay type in all cases: in vivo
Conditions in all cases: 500 g a.i/ha, pre-emergence treatment, about 15 days after treatment, score 0-5
[1] = system: Cyperus difformis (smallflower umbrella plant)
Method: (§1) Using the formulation prepared according to the methods described above, the herbicidal effect of the bicyclic pyrazolinone derivative of the invention according to the methods shown in Test Examples below was examined. The herbicidal effect with respect to the test weeds or the phytotoxicity with respect to the test crops was examined according to the following criteria, and evaluated in six stage scores of 0 to 5.
(§2) A plastic cup of 30 cm^2 was filled with paddy soil, soil puddling was performed, seeds of Echinochloa oryzicola (barnyard grass), Cyperus difformis (smallflower umbrella plant), Monochoria vaginalis (monochoria), Scirpus juncoides (bulrush), and Eleocharis acicularis (needle spikerush), and Lindernia procumbens (common false pimpernel), Rotala indica (indian toothcup), Elatine triandra (waterwort) as other annual broad leaf weeds were seeded therein, and kept in a submerged state. A wettable powder or an emulsifiable concentrate of the compound of the present invention prepared according to Formulation Example was diluted on the weed seeding day, and a submersing treatment was performed so as to be a predetermined dosage. The herbicidal effect with respect to the test weeds about 15 days after the treatment was evaluated according to the evaluation criteria in six stages of 0 to 5 described above.

[2] = system: Eleocharis acicularis (needle spikerush)
Method: as §1, §2

[3] = system: Monochoria vaginalis (monochoria)
Method: as §1, §2

[4] = system: Echinochloa oryzicola (barnyard grass)
Method: as §1, §2

[5] = system: Scirpus juncoides (bulrush)
Method: as §1, §2

[6] = system: other annual broad leaf weeds (Lindernia procumbens, Rotala indica, Elatine triandra)
Method: as §1, §2

SMILES | Herbicidal effect Cyperus difformis [1] | Herbicidal effect Eleocharis acicularis [2] | Herbicidal effect Monochoria vaginalis [3] | Herbicidal effect Echinochloa oryzicola [4] | Herbicidal effect Scirpus juncoides [5] | Herbicidal effect Broadleaf weed [6]
C=CC(F)(F)Oc1cc(-c2c(Cl)n3n(c2=O)CCCC3)c(F)cc1Cl [Example 1-206] | 5 (Herbicidal effect/phytotoxicity was 90% or greater) | 5 (Herbicidal effect/phytotoxicity was 90% or greater) | 5 (Herbicidal effect/phytotoxicity was 90% or greater) | 5 (Herbicidal effect/phytotoxicity was 90% or greater) | 5 (Herbicidal effect/phytotoxicity was 90% or greater) | 5 (Herbicidal effect/phytotoxicity was 90% or greater)
C=CCOC(=O)C=C(COc1ccccc1Oc1cc(-c2c(Cl)n3n(c2=O)CCCC3)c(F)cc1Cl)OCC [Compound 3-25] | 5 (Herbicidal effect/phytotoxicity was 90% or greater) | 5 (Herbicidal effect/phytotoxicity was 90% or greater) | 5 (Herbicidal effect/phytotoxicity was 90% or greater) | 5 (Herbicidal effect/phytotoxicity was 90% or greater) | 5 (Herbicidal effect/phytotoxicity was 90% or greater) | 5 (Herbicidal effect/phytotoxicity was 90% or greater)
COc1cc(-c2c(Cl)n3n(c2=O)CCCCC3)c(Cl)cc1Cl [Example 1-293] | 5 (Herbicidal effect/phytotoxicity was 90% or greater) | 5 (Herbicidal effect/phytotoxicity was 90% or greater) | 5 (Herbicidal effect/phytotoxicity was 90% or greater) | 5 (Herbicidal effect/phytotoxicity was 90% or greater) | 5 (Herbicidal effect/phytotoxicity was 90% or greater) | 5 (Herbicidal effect/phytotoxicity was 90% or greater)
COc1cc(F)ccc1Oc1cc(-c2c(Cl)n3n(c2=O)CCCC3)c(F)cc1Cl [Compound 3-33] | 5 (Herbicidal effect/phytotoxicity was 90% or greater) | 5 (Herbicidal effect/phytotoxicity was 90% or greater) | 5 (Herbicidal effect/phytotoxicity was 90% or greater) | 5 (Herbicidal effect/phytotoxicity was 90% or greater) | 5 (Herbicidal effect/phytotoxicity was 90% or greater) | 5 (Herbicidal effect/phytotoxicity was 90% or greater)
O=c1c(-c2cc(Oc3c(F)cc(C(F)(F)F)cc3Cl)c(Cl)cc2F)c(Cl)n2n1CCCC2 [Example 1-254] | 5 (Herbicidal effect/phytotoxicity was 90% or greater) | 5 (Herbicidal effect/phytotoxicity was 90% or greater) | 5 (Herbicidal effect/phytotoxicity was 90% or greater) | 5 (Herbicidal effect/phytotoxicity was 90% or greater) | 5 (Herbicidal effect/phytotoxicity was 90% or greater) | 5 (Herbicidal effect/phytotoxicity was 90% or greater)
CC(C)CCOc1cc(-c2c(Cl)n3n(c2=O)CCCC3)c(F)cc1F [Example 1-93] | 5 (Herbicidal effect/phytotoxicity was 90% or greater) | 5 (Herbicidal effect/phytotoxicity was 90% or greater) | 5 (Herbicidal effect/phytotoxicity was 90% or greater) | 5 (Herbicidal effect/phytotoxicity was 90% or greater) | 5 (Herbicidal effect/phytotoxicity was 90% or greater) | 5 (Herbicidal effect/phytotoxicity was 90% or greater)
CCCOC(=CC(=O)OC)COc1cc(-c2c(Cl)n3n(c2=O)CCCC3)c(F)cc1Cl (mixture of isomers) [Compound 2-13] | 5 (Herbicidal effect/phytotoxicity was 90% or greater) | 5 (Herbicidal effect/phytotoxicity was 90% or greater) | 5 (Herbicidal effect/phytotoxicity was 90% or greater) | 5 (Herbicidal effect/phytotoxicity was 90% or greater) | 5 (Herbicidal effect/phytotoxicity was 90% or greater) | 5 (Herbicidal effect/phytotoxicity was 90% or greater)
O=c1c(-c2cc(OC(F)F)c(Cl)cc2F)c(Cl)n2n1CCCC2 [Example 1-143] | 5 (Herbicidal effect/phytotoxicity was 90% or greater) | 5 (Herbicidal effect/phytotoxicity was 90% or greater) | 5 (Herbicidal effect/phytotoxicity was 90% or greater) | 5 (Herbicidal effect/phytotoxicity was 90% or greater) | 5 (Herbicidal effect/phytotoxicity was 90% or greater) | 5 (Herbicidal effect/phytotoxicity was 90% or greater)
C=CCOc1cc(Cl)ccc1Oc1cc(-c2c(Cl)n3n(c2=O)CCCC3)c(F)cc1Cl [Compound 3-38] | 5 (Herbicidal effect/phytotoxicity was 90% or greater) | 5 (Herbicidal effect/phytotoxicity was 90% or greater) | 5 (Herbicidal effect/phytotoxicity was 90% or greater) | 5 (Herbicidal effect/phytotoxicity was 90% or greater) | 5 (Herbicidal effect/phytotoxicity was 90% or greater) | 5 (Herbicidal effect/phytotoxicity was 90% or greater)
COc1cc(-c2c(F)n3n(c2=O)CCCC3)c(Cl)cc1Cl [Example 1-356] | 5 (Herbicidal effect/phytotoxicity was 90% or greater) | 5 (Herbicidal effect/phytotoxicity was 90% or greater) | 5 (Herbicidal effect/phytotoxicity was 90% or greater) | 5 (Herbicidal effect/phytotoxicity was 90% or greater) | 5 (Herbicidal effect/phytotoxicity was 90% or greater) | 5 (Herbicidal effect/phytotoxicity was 90% or greater)
CCCOC(=CC(=O)OCC(C)C)COc1cc(-c2c(Cl)n3n(c2=O)CCCC3)c(F)cc1Cl [Compound 2-34] | 5 (Herbicidal effect/phytotoxicity was 90% or greater) | 5 (Herbicidal effect/phytotoxicity was 90% or greater) | 5 (Herbicidal effect/phytotoxicity was 90% or greater) | 5 (Herbicidal effect/phytotoxicity was 90% or greater) | 5 (Herbicidal effect/phytotoxicity was 90% or greater) | 5 (Herbicidal effect/phytotoxicity was 90% or greater)
CCOC(=O)C(Cl)Cc1cc(-c2c(Cl)n3n(c2=O)CCCC3)c(F)cc1Cl (stereo not drawn) [Example 1-260] | 5 (Herbicidal effect/phytotoxicity was 90% or greater) | 5 (Herbicidal effect/phytotoxicity was 90% or greater) | 5 (Herbicidal effect/phytotoxicity was 90% or greater) | 5 (Herbicidal effect/phytotoxicity was 90% or greater) | 5 (Herbicidal effect/phytotoxicity was 90% or greater) | 5 (Herbicidal effect/phytotoxicity was 90% or greater)
C=CCOC(=O)C=C(COc1cc(-c2c(Cl)n3n(c2=O)CCCC3)c(F)cc1Cl)OCC (mixture of isomers) [Compound 2-11] | 5 (Herbicidal effect/phytotoxicity was 90% or greater) | 5 (Herbicidal effect/phytotoxicity was 90% or greater) | 5 (Herbicidal effect/phytotoxicity was 90% or greater) | 5 (Herbicidal effect/phytotoxicity was 90% or greater) | 5 (Herbicidal effect/phytotoxicity was 90% or greater) | 5 (Herbicidal effect/phytotoxicity was 90% or greater)
O=c1c(-c2cc(Oc3c(F)cc(C(F)(F)F)cc3Cl)c(F)cc2F)c(Cl)n2n1CCCC2 [Example 1-340] | 5 (Herbicidal effect/phytotoxicity was 90% or greater) | 5 (Herbicidal effect/phytotoxicity was 90% or greater) | 5 (Herbicidal effect/phytotoxicity was 90% or greater) | 5 (Herbicidal effect/phytotoxicity was 90% or greater) | 5 (Herbicidal effect/phytotoxicity was 90% or greater) | 5 (Herbicidal effect/phytotoxicity was 90% or greater)
CC1(COc2cc(-c3c(Cl)n4n(c3=O)CCCC4)c(F)cc2Cl)CC(c2ccc(F)cc2)=NO1 (stereo not drawn) [Compound 4-7] | 5 (Herbicidal effect/phytotoxicity was 90% or greater) | 5 (Herbicidal effect/phytotoxicity was 90% or greater) | 5 (Herbicidal effect/phytotoxicity was 90% or greater) | 5 (Herbicidal effect/phytotoxicity was 90% or greater) | 5 (Herbicidal effect/phytotoxicity was 90% or greater) | 5 (Herbicidal effect/phytotoxicity was 90% or greater)
